Measured values published in patent publication US20250136563A1, “THIADIAZOLONE DERIVATIVES USEFUL AS AMPK ACTIVATOR” (Betagenon AB, priority 2021, published 2025).
Entries after “also recorded” stand apart in the source; their conditions may differ. Where a name gives a salt, the structure may show the parent alone. Read-outs that look alike come from different tables or passages of the source.

Legend:
[1] = Stability in buffers pH 1.20, 7.40 and 9.20 (Examples 26 and 27)
Description: (§1) The stability of Compound 17 was assessed in buffers with pH 1.20, 7.40 and 9.20. The pH 1.20 study was conducted using an HCl buffer. A phosphate buffer was used for the pH 7.40 medium, and an alkaline borate buffer was used for the pH 9.20 medium.
(§2) HCl buffer—Potassium chloride (1.491 g) was dissolved in 100 mL of Ultrapure water type-1 to get 0.2 M KCl solution. About 50 mL of 0.2 M KCl was taken in a beaker and the pH was adjusted to 1.20 using 0.2 M HCl solution. The final volume was made up to 200 mL using Ultrapure water type-1 and stored at room temperature (22±3° C.).
(§3) Phosphate buffer—Potassium phosphate monobasic (2.722 g) was dissolved in 100 mL of Ultrapure water type-1 to get 0.2 M solution. About 50 mL of 0.2 M solution was taken in a beaker and the pH was adjusted to 7.40 using 0.2 M NaOH solution. The final volume was made up to 200 mL using Ultrapure water type-1 and stored at room temperature (22±3° C.).
(§4) Alkaline borate buffer—Boric acid (1.237 g) and potassium chloride (1.491 g) were dissolved in 100 mL of Ultrapure water type-1 to get 0.2 M solution. About 50 mL of 0.2 M solution was taken in beaker and the pH was adjusted to 9.20 using 0.2 M NaOH solution. The final volume was made up to 200 mL using Ultrapure water type-1 and stored at room temperature (22±3° C.).
(§5) 5 μM solutions of Compound 17 in each buffer were prepared with 5 mM DMSO stock solutions. The solutions were incubated at 22 t 3° C. for 120 minutes, with shaking at 400 rpm using a thermomixer.
(§6) After 0, 15, 30, 60 and 120 minute intervals, aliquots of sufficient volume of the compound solutions were taken, diluted and analysed to determine the stability of Compound 17 in each solution, as well as the amount of Compound 1 present. The amount of Compound 1 present was compared to the amount expected assuming full conversion of Compound 17 to Compound 1.
(§7) The stability of Compounds 3, 6, 9, 20 and 23 was tested using the same methods as described above for Compound 17.

[2] = Stability in HCl buffer (pH 1.20), 37° C.; format: physicochemical; conditions: for % remaining compared to 0.0 min: HCl buffer pH 1.20, 37° C.
Description: 5 μM solutions of Compound 1 and Compound 4 (i.e. the citric acid salt of Compound 3) in HCl buffer (pH: 1.20) were prepared with 5 mM DMSO stock solutions.

[3] = mice; Das et al. 2019; cited from earlier work
[4] = Single dose oral pharmacokinetic study of Compounds 5, 6, 7, 9, 10, 13, 14, 16 and 17 in Sprague Dawley rats; format: in vivo
Description: 10.0 mL of 2% w/v methyl cellulose solution in phosphate buffer (pH 7.5) was added to a 100 mL conical flask along with 1 g of 2 mm glass beads. The solution was vigorously stirred on a magnetic stirrer. 100 mg of Compound 1 was slowly added to the solution, and the solution was vigorously stirred for approximately 1 h. The pH of the formulation was measured to be 7.49. Each formulation was freshly prepared prior to administration to the animals. The final concentration of Compound 1 in of the formulation was 10 mg/mL. The formulation was administered at 5 mL/kg body weight. […]
Adult healthy male Sprague Dawley rats aged 8 to 10 weeks were used for experimentation after a minimum three days of acclimatization. Fed state animals were administered the formulation of Compound 1 or Compound 3 orally via gavage at a dose of 50 mg/kg or 65 mg/kg body weight, respectively.
Under mild isoflurane anesthesia, blood specimens were collected by retro-orbital puncture method using capillary tubes into pre-labeled tubes containing anticoagulant (K2EDTA: 2 mg/mL blood) during the next 72 hours post-dosing, as detailed in Table 6. For blood sampling at multiple time points, the right and left eyes were used alternatively. Collected blood specimens were centrifuged at 6000 rpm, 4° C. for 10 minutes and the plasma samples were separated and stored at −80° C. until analysis.
Formulations were prepared in accordance with the method described in Example 19.
Doses equivalent to 50 mg/kg of Compound 1 were selected for comparison of equimolar doses.
The administration and blood sampling were performed as described in Example 19.
The results for the single dose oral pharmacokinetic study in rats are tabulated in Tables 7 and below and are shown graphically in FIG. 3. In Table 7, the Cmax, Tmax, AUClast, AUCinf, AUCextrap and T1/2 values are for 4-chloro-N-[2-[(4-chlorophenyl)methyl]-3-oxo-1,2,4-thiadiazol-5-yl]benzamide (Compound 1), which was detected following the administration of the compounds.

[5] = for % remaining after 15 min / % remaining after 30 min: buffer; for % remaining after 15 min: 0.25 h; for % remaining after 30 min: 0.5 h
Description: as §1, §2, §3, §4, §5, §6, §7

AMPK = assay: Activation of AMPK: Western blot of p-T172 AMPKα in INS-1E insulinoma cells; format: cell-based; conditions: for ratio between p-T172 AMPK and non-phosphorylated AMPK: INS-1E cells, 4 h, control 1.00
Description: INS-1E cells were cultivated as described in Steneberg et al., JCI Insight. 2018; 3(12):e99114. https://doi.org/10.1172/jci.insight.99114, using 5% instead of 10% fetal bovine serum when plated for treatment.
Compound 3 was dissolved at 10 mM in DMSO and frozen at −20° C.
The INS-1E cells were treated in serum free medium with increasing doses of Compound 3 for 4 hours in accordance with the methods described in Steneberg et al., JCI Insight. 2018; 3(12):e99114. https://doi.org/10.1172/jci.insight.99114.
Western blot analysis of the INS-1E cells was performed as described in Steneberg et. al., JCI Insight. 2018; 3(12):e99114. https://doi.org/10.1172/jci.insight.99114. The cell lysates were passed through a 30-gauge needle, ˜8-times and centrifuged for 10 min at +4° C. at 14000 rpm. Quantified values for AMPKα, and phosphorylated-T172 AMPKα, were normalized toward the quantified values for β-Actin.

[6] = Single dose oral pharmacokinetic study of Compounds 1 and 3 in Sprague Dawley rats; format: in vivo; conditions: equimolar doses
Description: 10.0 mL of 2% w/v methyl cellulose solution in phosphate buffer (pH 7.5) was added to a 100 mL conical flask along with 1 g of 2 mm glass beads. The solution was vigorously stirred on a magnetic stirrer. 100 mg of Compound 1 was slowly added to the solution, and the solution was vigorously stirred for approximately 1 h. The pH of the formulation was measured to be 7.49. Each formulation was freshly prepared prior to administration to the animals. The final concentration of Compound 1 in of the formulation was 10 mg/mL. The formulation was administered at 5 mL/kg body weight.
6 mL of 2% w/v methyl cellulose solution in phosphate buffer (pH 7.5) was added to a 25 mL of conical flask together with 1 g of 2 mm glass beads. The solution was vigorously stirred on a magnetic stirrer. 78 mg of Compound 3 was slowly added to the solution, and the solution was vigorously stirred for approximately 1 h. The pH of the formulation was measured to be 7.41. […]
The results for the single dose oral pharmacokinetic study in rats are tabulated in Tables 5 and 6 below and are shown graphically in FIG. 2. In Table 5, the Cmax, Tmax, AUClast, AUCinf, AUCextrap, T1/2 and MRTlast values are for 4-chloro-N-[2-[(4-chlorophenyl)methyl]-3-oxo-1,2,4-thiadiazol-5-yl]benzamide (Compound 1), which was detected following the administration of both Compounds 1 and 3.

[7] = analyte Compound 1 in plasma, oral, dose equivalent to 50 mg/kg of Compound 1

## NCCCCC(N)C(=O)OCN1C(=O)N(Cc2ccc(Cl)cc2)SC1NC(=O)c1ccc(Cl)cc1.O=C(O)C(F)(F)F.O=C(O)C(F)(F)F (centres unmarked) [Compound 6, 6-{[5-(4-chlorobenzamido)-2-[(4-chlorophenyl)methyl]-3-oxo-1,2,4-thiadiazolidin-4-yl]methoxy}-6-oxohexane-1,5-bis(aminium) di-trifluoroacetate]
[1]; buffer pH 1.2
  % remaining after 15 min: 83%
  % remaining after 30 min: 86%
[1]; buffer pH 7.4
  % remaining after 15 min: 33%
  % remaining after 30 min: 33%

## O=C(Nc1nc(=O)n(Cc2ccc(Cl)cc2)s1)c1ccc(Cl)cc1 [Compound 1, 4-chloro-N-[2-[(4-chlorophenyl)methyl]-3-oxo-1,2,4-thiadiazol-5-yl]benzamide, reference compound]
[2]; 0.0 min
  % remaining compared to 0.0 min: 100.00%
[2]; 15 min
  % remaining compared to 0.0 min: 71.32%
[2]; 30 min
  % remaining compared to 0.0 min: 63.05%
[2]; 60 min
  % remaining compared to 0.0 min: 58.77%
[2]; 120 min
  % remaining compared to 0.0 min: 43.04%
[3]
  treating pain (in words): effective at treating pain

## 2-({[5-(4-chlorobenzamido)-2-[(4-chlorophenyl)methyl]-3-oxo-1,2,4-thiadiazolidin-4-yl]methoxy}carbonyl)-1-methylpyrrolidine [Compound 10]
[4]; 0.00 h post-dose, oral, equivalent to 50 mg/kg of Compound 1
  Plasma Concentration of Compound 1: 0.00 µg/mL
[4]; 1.00 h post-dose
  Plasma Concentration of Compound 1: 76.70 µg/mL
[4]; 4.00 h post-dose
  Plasma Concentration of Compound 1: 106.37 µg/mL
[4]; 8.00 h post-dose
  Plasma Concentration of Compound 1: 100.53 µg/mL
[4]; 24.00 h post-dose
  Plasma Concentration of Compound 1: 26.77 µg/mL
[4]; [7]
  AUCextrap: 17.81%
  AUCinf: 2120.39 µg·h/mL
  AUClast: 1745.15 µg·h/mL
  Cmax: 114.03 µg/mL
  T1/2: 9.63 h
  Tmax: 5.33 h

## CN(C)C(=N)N=C(N)N [metformin]
[3]
  treating pain (in words): effective at treating pain

## [azaniumyl({[(4S)-4-azaniumyl-4-[(2-{[5-(4-chlorobenzamido)-2-[(4-chlorophenyl)methyl]-3-oxo-1,2,4-thiadiazolidin-4-yl]methoxy}-2-oxoethyl)carbamoyl]butyl]amino})methylidene]azanium Trichloride [Compound 23]
[5]; pH 1.2
  % remaining after 15 min: 78%
  % remaining after 30 min: 77%
  stability at pH 1.2 (in words): relatively stable
[5]; pH 7.4
  % remaining after 15 min: 0%
  % remaining after 30 min: 0%
  stability at pH 7.40 and above (in words): degrade rapidly

## CN(C)CC(=O)OCn1c(=O)n(Cc2ccc(Cl)cc2)s/c1=N\C(=O)c1ccc(Cl)cc1 [Compound 3, Dimethylamino-Acetic Acid 5-[(Z)-4-chloro-benzoylimino]-2-(4-chloro-benzyl)-3-oxo-[1,2,4]thiadiazolidin-4-ylmethyl Ester]
[2]; 0.0 min
  % remaining compared to 0.0 min: 100.00%
[2]; 15 min
  % remaining compared to 0.0 min: 96.92%
[2]; 30 min
  % remaining compared to 0.0 min: 83.74%
[2]; 60 min
  % remaining compared to 0.0 min: 86.54%
[2]; 120 min
  % remaining compared to 0.0 min: 88.31%
[2]; pH 1.2
  stability in acidic solutions (in words): greater stability than Compound 1
AMPK; 1.25 μM
  ratio between p-T172 AMPK and non-phosphorylated AMPK: 1.24
AMPK; 2.5 μM
  ratio between p-T172 AMPK and non-phosphorylated AMPK: 2.24
AMPK; 5 μM
  ratio between p-T172 AMPK and non-phosphorylated AMPK: 5.99
AMPK; cultured INS-1E cells
  phosphorylation of AMPK (in words): increases phosphorylation of AMPK in a dose-dependent manner; also recorded: increases phosphorylated-T172 AMPK in a dose-dependent manner
[6]
  increase in systemic exposure of Compound 1 after oral Compound 3 versus oral Compound 1: ten-fold
[1]; buffer pH 1.2
  % remaining after 15 min: 97%
  % remaining after 30 min: 83%
[1]; buffer pH 7.4
  % remaining after 15 min: 46%
  % remaining after 30 min: 16%

## NCC(=O)OCn1c(=O)n(Cc2ccc(Cl)cc2)s/c1=N\C(=O)c1ccc(Cl)cc1 [Compound 9, Trifluoroacetate]
[1]; buffer pH 1.2
  % remaining after 15 min: 100%
  % remaining after 30 min: 100%
[1]; buffer pH 7.4
  % remaining after 15 min: 46%
  % remaining after 30 min: 13%

## NC(CC(=O)O)C(=O)OCn1c(=O)n(Cc2ccc(Cl)cc2)s/c1=N/C(=O)c1ccc(Cl)cc1 (centres unmarked) [Compound 17, Trifluoroacetate]
[1]; buffer pH 1.2
  % remaining after 15 min: 76%
  % remaining after 30 min: 82%
[1]; buffer pH 7.4
  % remaining after 15 min: 0%
  % remaining after 30 min: 0%
[1]; pH 1.20, 0.0 min
  Percentage of Compound 17 remaining compared to 0 minutes: 100.00
[1]; pH 1.20, 15.0 min
  Percentage of Compound 17 remaining compared to 0 minutes: 76.19
[1]; pH 1.20, 30.0 min
  Percentage of Compound 17 remaining compared to 0 minutes: 82.37
[1]; pH 1.20, 60.0 min
  Percentage of Compound 17 remaining compared to 0 minutes: 73.33
[1]; pH 1.20, 120.0 min
  Percentage of Compound 17 remaining compared to 0 minutes: 79.04
[1]; pH 1.2, Trifluoroacetate
  stability at pH 1.2 (in words): greatest stability; also recorded: relatively stable
[1]; pH 7.40, 0.0 min
  Percentage of Compound 17 remaining compared to 0 minutes: 100.00
[1]; pH 7.40, 15.0 min
  Percentage of Compound 17 remaining compared to 0 minutes: 0.13
[1]; pH 7.40, 30.0 min
  Percentage of Compound 17 remaining compared to 0 minutes: 0.39
[1]; pH 7.40, 60.0 min
  Percentage of Compound 17 remaining compared to 0 minutes: 0.47
[1]; pH 7.40, 120.0 min
  Percentage of Compound 17 remaining compared to 0 minutes: 2.33
[1]; pH 7.40 / higher pH, Trifluoroacetate
  stability at pH 7.40 and above (in words): degrade rapidly; also recorded: very low
[1]; pH 9.20, 0.0 min
  Percentage of Compound 17 remaining compared to 0 minutes: 100.00
[1]; pH 9.20, 15.0 min
  Percentage of Compound 17 remaining compared to 0 minutes: 0.00
[1]; pH 9.20, 30.0 min
  Percentage of Compound 17 remaining compared to 0 minutes: 0.00
[1]; pH 9.20, 60.0 min
  Percentage of Compound 17 remaining compared to 0 minutes: 0.00
[1]; pH 9.20, 120.0 min
  Percentage of Compound 17 remaining compared to 0 minutes: 0.00
